{"source": "patent US20260102372A1", "about": "“NEW FORMULATIONS FOR MENTAL DISORDERS OR MENTAL ENHANCEMENT” (TACTOGEN INC, priority 2023, published 2026)", "origin": "cited, not measured here", "key": {"[1]": {"target": "cytochrome p450 isozyme 2D6 (CYP2D6) (Homo sapiens, UniProt P10635)", "sequence (P10635 whole entry)": "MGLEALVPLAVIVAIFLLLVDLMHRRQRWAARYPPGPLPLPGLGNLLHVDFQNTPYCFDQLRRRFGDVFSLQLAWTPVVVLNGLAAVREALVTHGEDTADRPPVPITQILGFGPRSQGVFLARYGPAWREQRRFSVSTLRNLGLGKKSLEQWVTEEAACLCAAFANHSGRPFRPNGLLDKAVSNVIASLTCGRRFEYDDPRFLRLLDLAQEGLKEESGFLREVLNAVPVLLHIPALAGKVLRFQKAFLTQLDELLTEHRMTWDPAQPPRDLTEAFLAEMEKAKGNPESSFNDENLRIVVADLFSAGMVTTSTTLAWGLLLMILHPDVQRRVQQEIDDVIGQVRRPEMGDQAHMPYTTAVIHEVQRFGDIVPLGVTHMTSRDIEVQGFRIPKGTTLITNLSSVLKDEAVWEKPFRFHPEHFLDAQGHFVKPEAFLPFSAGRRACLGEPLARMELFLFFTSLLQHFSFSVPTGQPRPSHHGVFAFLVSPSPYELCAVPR"}, "[2]": {"settings": "pooled Phase 2 trials"}, "[3]": {"assay": "not given", "remark": "listed apart in the source"}, "PTSD": {"tested_on": "PTSD", "settings": "MDMA arm"}, "[4]": {"settings": "nonhuman animals"}}, "data": [{"smiles": "CNC(C)Cc1ccc2c(c1)OCO2", "note": "(stereo not shown) [MDMA, [1-(2H-1,3-benzodioxol-5-yl)propan-2-yl](methyl)amine]", "values": [{"measurement": "duration of acute psychological and emotional effects (average)", "setting": "after 75 or 125 mg MDMA, standard deviation 1.3 hours (Vizeli & Liechti 2017)", "value": 4.2, "unit": "hours"}, {"measurement": "time by which acute emotional effects have largely resolved", "setting": "after administration of MDMA", "value": "≤ 8", "unit": "h"}, {"measurement": "CYP2D6 interaction", "setting": "[1]", "value": "both a substrate and inhibitor"}, {"measurement": "nausea occurred in participants", "setting": "[2]; 29 of 72 participants (Mithoefer et al. 2019)", "value": 40.3, "unit": "%"}, {"measurement": "anxiety occurred in participants", "setting": "[2]; 52 of 72 participants (Mithoefer et al. 2019)", "value": 72.2, "unit": "%"}, {"measurement": "half-life in plasma", "setting": "[3]", "value": "seven to nine"}, {"measurement": "participants with sufficient improvement that they were no longer diagnosable with PTSD", "setting": "PTSD; first of two Phase 3 trials (Mitchell et al. 2021)", "value": "one-third"}, {"measurement": "participants improved", "setting": "PTSD; first of two Phase 3 trials, MDMA-assisted therapy for PTSD (Mitchell et al. 2021)", "value": 88, "unit": "%"}, {"measurement": "markers of serotonergic functioning (brain serotonin, tryptophan hydroxylase, serotonin transporter density)", "setting": "[4]", "value": "decreases"}, {"measurement": "measures of oxidative stress", "setting": "[4]", "value": "increases"}]}]}
